Source: ChEMBL document CHEMBL1138630, “Antioxidant activities of a new lignan and a neolignan from Saururus chinensis” (Bioorg Med Chem Lett, 2004)

Assays:
Cell line [1] = assay: Effect of compound (0.1 uM) on macrophage-mediated oxidation of LDL was measured by MDA levels in the presence of Cu2+; assay type: functional, Homo sapiens
Cell line [2] = assay: Concentration required for inhibition of Cu+2-induced peroxidation in low-density lipoprotein of human; assay type: functional, cell-based
Cell line [3] = assay: Antioxidant activity on copper-induced peroxidation in low-density lipoprotein at 10 uM; expressed as area of absorbance/mm; assay type: functional, Homo sapiens
Cell line [4] = assay: Antioxidant activity on copper-induced peroxidation in low-density lipoprotein at 20 uM; expressed as area of absorbance/mm; assay type: functional, Homo sapiens
Cell line [5] = assay: Effect of compound (1 uM) on macrophage-mediated oxidation of LDL was measured by MDA levels in the presence of Cu2+; assay type: functional, Homo sapiens

Row | SMILES | Activity (Cell line [1]) [nmol/mg LDL] | IC50 (Cell line [2]) [µM] | Activity (Cell line [3]) [AU/mm] | Activity (Cell line [4]) [AU/mm] | Activity (Cell line [5]) [nmol/mg LDL]
1 | COc1ccc(C[C@H](C)[C@@H](C)Cc2cc(OC)c(O)cc2O)cc1O | 358.9 | 3.3 | 6.45 | 7.66 | –
2 | C/C=C/c1ccc(O[C@@H](C)[C@@H](O)c2ccc(O)c(OC)c2)c(OC)c1 [MACHILIN D] | 118.3 | 3.8 | 5.81 | 6.78 | –
3 | CC(C)(Sc1cc(C(C)(C)C)c(O)c(C(C)(C)C)c1)Sc1cc(C(C)(C)C)c(O)c(C(C)(C)C)c1 [PROBUCOL] | – | 2.8 | 4.32 | 6.7 | 412.6
